# Assays:
# [1] = Stability in human whole blood assessed as amidase-mediated carboxylic acid formation by measuring parent compound remaining measured after 1 hr; format: ADME, tissue-based
# [2] = Half life in mouse liver microsomes at 0.5 mM preincubated for 5 mins followed by NADP addition and measured after LC-MS/MS analysis; format: ADME, Microsome
# Mus musculus = species: Mus musculus; experiment: animal or person; details: C57BL/6J, po
# [3] = Apparent permeability of the compound at 2.5 uL at pH 7.4 incubated for 3 hrs under shaking condition by PAMPA; format: ADME
# [4] = Dose normalized AUC in po dosed mouse; format: ADME, organism-based; details: in vivo
# [5] = Terminal half life in mouse; format: ADME, organism-based; details: in vivo
# [6] = Solubility of the compound in FaSSIF by HPLC analysis; format: physicochemical
# [7] = Oral bioavailability in mouse; format: ADME, organism-based; details: in vivo
# [8] = Clearance in iv dosed mouse; format: ADME, organism-based; details: in vivo
# [9] = Volume of distribution at steady state in mouse; format: ADME, organism-based; details: in vivo, read-out: Vdss
smiles,measurement,setting,value
COc1ccc2cc(C(=O)N[C@H]3CCNC3=O)cnc2c1,Stability,[1],100%
CC(C)(O)[C@H]1CC[C@H](NC(=O)c2cnc3cc(OC(F)F)ccc3c2)CC1,half-life,[2],> 3 h
same,ED50,Mus musculus,0.032 mg/kg
same,Papp at 3 h,[3],24 ×10⁻⁶ cm/s
same,AUC/dose,[4],1800 ng·h/mL per mg/kg
same,beta t1/2,[5],3.8 h
COc1ccc2cc(C(=O)N[C@H]3CC[C@H](C(C)(C)O)CC3)cnc2c1,half-life,[2],0.633 h
COc1ccc2cc(C(=O)NC(C)(C)C)cnc2c1,Stability,[1],1%
CC(C)(O)[C@H]1CC[C@H](NC(=O)c2cnc3cc(OC(F)(F)F)ccc3c2)CC1,solubility,[6],16 µg/mL
same,half-life,[2],> 3 h
same,bioavailability,[7],46%
same,Papp at 3 h,[3],47 ×10⁻⁶ cm/s
same,AUC/dose,[4],1900 ng·h/mL per mg/kg
same,clearance,[8],3.8 mL/min/kg
same,half-life,[5],7.9 h
same,Vd,[9],2.5 L/kg
COc1ccc2cc(C(=O)Nc3cc[nH]n3)cnc2c1,Stability,[1],93%
COc1ccc2cc(C(=O)Nc3cn[nH]c3)cnc2c1,Stability,[1],63%

# Reference: ChEMBL document CHEMBL4400569, “The discovery of quinoline-3-carboxamides as hematopoietic prostaglandin D synthase (H-PGDS) inhibitors” (Bioorg Med Chem, 2019)
